Source: ChEMBL document CHEMBL5550204, “Discovery of ZJCK-6-46: A Potent, Selective, and Orally Available Dual-Specificity Tyrosine Phosphorylation-Regulated Kinase 1A Inhibitor for the Treatment of Alzheimer's Disease” (J Med Chem, 2024)
The source made the active and inactive calls. The calls are words filed in the database; no cut-off is given here.

Tests used:
[1] = Acute toxicity in C57BL/6 mouse assessed as change in body weight at 500 mg/kg,po observed after 14 days; type: organism-based; conditions: in vivo, 336 h, time 14 day
[2] = AUC (0 to infinity) in Sprague-Dawley rat at 2 mg/kg,iv measured upto 24 hrs by LC-MS/MS analysis; type: ADME, organism-based; conditions: in vivo
[3] = Metabolic stability in human liver microsomes assessed as half life at 1 uM incubated upto 45 mins in presence of NADPH by LC-MS/MS analysis; type: ADME, Microsome
[4] = biological target: Dual specificity tyrosine-phosphorylation-regulated kinase 1B (Homo sapiens, UniProt Q9Y463); assay: Inhibition of DYRK1B (unknown origin) at 1 uM preincubated with enzyme for 10 mins followed by substrate and ATP addition measured after 60 mins by ADP-Glo reagent based assay relative to control; conditions: time 70.0 min
Dual specificity tyrosine-phosphorylation-regulated kinase 1B, sequence (Q9Y463 whole entry, looked up): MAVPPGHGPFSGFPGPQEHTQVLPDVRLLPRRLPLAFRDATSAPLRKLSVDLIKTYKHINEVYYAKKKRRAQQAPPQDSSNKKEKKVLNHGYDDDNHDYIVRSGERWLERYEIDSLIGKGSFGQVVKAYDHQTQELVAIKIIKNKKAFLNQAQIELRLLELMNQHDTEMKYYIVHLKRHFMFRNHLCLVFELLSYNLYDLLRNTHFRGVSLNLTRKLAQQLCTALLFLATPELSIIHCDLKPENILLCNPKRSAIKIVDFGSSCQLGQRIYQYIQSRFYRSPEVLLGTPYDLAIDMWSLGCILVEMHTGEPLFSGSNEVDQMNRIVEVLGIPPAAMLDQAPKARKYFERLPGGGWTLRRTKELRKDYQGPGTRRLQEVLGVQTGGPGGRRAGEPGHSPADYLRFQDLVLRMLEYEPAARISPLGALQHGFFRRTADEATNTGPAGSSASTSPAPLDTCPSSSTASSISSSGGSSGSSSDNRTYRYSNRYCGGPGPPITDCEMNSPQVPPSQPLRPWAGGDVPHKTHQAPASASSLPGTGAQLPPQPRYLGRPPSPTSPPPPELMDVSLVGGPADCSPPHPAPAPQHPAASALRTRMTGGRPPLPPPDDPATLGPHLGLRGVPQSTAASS

CYP2C19 = CYP2C19 (Homo sapiens, UniProt P33261); assay: Inhibition of CYP2C19 in human liver microsomes using mephenytoin as substrate at 10 uM preincubated for 10 mins followed by NADPH addition and measured after 40 mins by LC-MS/MS analysis relative to control; type: ADME, Microsome; conditions: probe mephenytoin, time 50 min
[5] = biological target: Dual specificity tyrosine-phosphorylation-regulated kinase 2 (Homo sapiens) (UniProt Q92630); assay: Inhibition of DYRK2 (unknown origin) at 1 uM preincubated with enzyme for 10 mins followed by substrate and ATP addition measured after 60 mins by ADP-Glo reagent based assay relative to control; conditions: time 70.0 min
Dual specificity tyrosine-phosphorylation-regulated kinase 2 (Homo sapiens), sequence (Q92630 whole entry): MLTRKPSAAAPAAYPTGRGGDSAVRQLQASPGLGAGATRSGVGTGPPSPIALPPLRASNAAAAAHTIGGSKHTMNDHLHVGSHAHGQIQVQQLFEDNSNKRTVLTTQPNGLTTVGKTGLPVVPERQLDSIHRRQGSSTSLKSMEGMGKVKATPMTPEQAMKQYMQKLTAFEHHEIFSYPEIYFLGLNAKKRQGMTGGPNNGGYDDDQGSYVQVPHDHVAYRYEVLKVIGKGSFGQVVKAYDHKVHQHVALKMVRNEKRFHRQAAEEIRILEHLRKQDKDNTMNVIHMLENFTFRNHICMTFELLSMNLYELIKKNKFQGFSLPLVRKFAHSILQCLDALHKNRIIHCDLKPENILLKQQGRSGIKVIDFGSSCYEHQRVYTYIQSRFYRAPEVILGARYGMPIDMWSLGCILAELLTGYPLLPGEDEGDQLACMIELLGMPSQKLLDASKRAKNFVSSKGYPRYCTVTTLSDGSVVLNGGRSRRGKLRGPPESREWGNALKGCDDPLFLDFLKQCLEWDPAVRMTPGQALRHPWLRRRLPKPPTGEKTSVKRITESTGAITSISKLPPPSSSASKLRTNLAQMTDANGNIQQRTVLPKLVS

[6] = MRT (0 to t) in Sprague-Dawley rat at 10 mg/kg,po measured upto 24 hrs by LC-MS/MS analysis; type: ADME, organism-based; conditions: in vivo
Mus musculus [7] = assay: Antialzheimer activity in okadaic acid-induced cognitive impairment C57BL/6 mouse assessed as increase in number of platform crossing at 10 to 30 mg/kg,po measured after 7 days by Morris water maze test; type: functional, organism-based; conditions: dose 10-30 mg/kg, time 7.0 day
[8] = Oral bioavailability in Sprague-Dawley rat at 10 mg/kg measured upto 24 hrs by LC-MS/MS analysis; type: ADME, organism-based; conditions: in vivo
[9] = Acute toxicity in C57BL/6 mouse assessed as change in spleen weight at 500 mg/kg,po observed after 14 days; type: organism-based; conditions: in vivo, 336 h, time 14 day
Mus musculus [10] = assay: Antialzheimer activity in okadaic acid-induced cognitive impairment C57BL/6 mouse assessed as decrease in memory deficit at 10 to 30 mg/kg,po once daily for 2 weeks by Morris water maze test; type: functional, organism-based; conditions: dose 10-30 mg/kg
[11] = biological target: Dual specificity tyrosine-phosphorylation-regulated kinase 3 (Homo sapiens, UniProt O43781); assay: Inhibition of DYRK3 (unknown origin) preincubated with enzyme for 10 mins followed by substrate and ATP addition measured after 60 mins by ADP-Glo reagent based assay
Dual specificity tyrosine-phosphorylation-regulated kinase 3, sequence (O43781 whole entry): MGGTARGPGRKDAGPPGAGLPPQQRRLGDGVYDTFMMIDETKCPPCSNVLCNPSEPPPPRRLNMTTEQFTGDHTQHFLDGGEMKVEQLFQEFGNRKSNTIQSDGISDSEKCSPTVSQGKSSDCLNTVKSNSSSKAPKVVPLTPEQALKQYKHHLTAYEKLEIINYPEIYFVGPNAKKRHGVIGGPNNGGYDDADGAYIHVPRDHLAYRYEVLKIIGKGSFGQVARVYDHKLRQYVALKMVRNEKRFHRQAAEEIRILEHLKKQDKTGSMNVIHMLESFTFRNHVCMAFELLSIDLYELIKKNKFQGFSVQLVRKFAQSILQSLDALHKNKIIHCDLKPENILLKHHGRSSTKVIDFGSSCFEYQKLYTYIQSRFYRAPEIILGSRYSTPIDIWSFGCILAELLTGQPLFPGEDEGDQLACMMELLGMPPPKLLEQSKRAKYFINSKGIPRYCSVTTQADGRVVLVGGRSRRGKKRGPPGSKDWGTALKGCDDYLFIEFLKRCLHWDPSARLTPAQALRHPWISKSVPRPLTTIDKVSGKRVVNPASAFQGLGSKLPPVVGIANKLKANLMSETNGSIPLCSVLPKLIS

CYP2D6 = CYP2D6 (Homo sapiens, UniProt P10635); assay: Inhibition of CYP2D6 in human liver microsomes using dextromethorphan as substrate at 10 uM preincubated for 10 mins followed by NADPH addition and measured after 40 mins by LC-MS/MS analysis relative to control; type: ADME, Microsome; conditions: probe dextromethorphan, time 50 min
CYP2D6, sequence (P10635 whole entry): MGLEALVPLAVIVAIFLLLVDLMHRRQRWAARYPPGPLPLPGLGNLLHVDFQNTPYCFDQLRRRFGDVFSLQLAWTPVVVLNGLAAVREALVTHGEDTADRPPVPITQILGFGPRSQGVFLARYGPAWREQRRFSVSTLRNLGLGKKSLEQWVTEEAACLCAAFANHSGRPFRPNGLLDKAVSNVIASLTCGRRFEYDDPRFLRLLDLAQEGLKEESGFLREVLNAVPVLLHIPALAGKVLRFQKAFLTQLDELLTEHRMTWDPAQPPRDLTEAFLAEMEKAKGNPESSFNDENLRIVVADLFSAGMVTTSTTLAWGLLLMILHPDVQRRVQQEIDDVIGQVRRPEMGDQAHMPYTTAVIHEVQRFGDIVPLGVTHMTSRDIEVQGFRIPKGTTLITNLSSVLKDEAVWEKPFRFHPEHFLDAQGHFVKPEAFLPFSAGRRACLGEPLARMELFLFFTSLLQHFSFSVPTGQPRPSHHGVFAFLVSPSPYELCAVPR

[12] = biological target: Dual specificity tyrosine-phosphorylation-regulated kinase 4 (Homo sapiens) (UniProt Q9NR20); assay: Inhibition of DYRK4 (unknown origin) at 1 uM preincubated with enzyme for 10 mins followed by substrate and ATP addition measured after 60 mins by ADP-Glo reagent based assay relative to control; conditions: time 70.0 min
Dual specificity tyrosine-phosphorylation-regulated kinase 4 (Homo sapiens), sequence (Q9NR20 whole entry): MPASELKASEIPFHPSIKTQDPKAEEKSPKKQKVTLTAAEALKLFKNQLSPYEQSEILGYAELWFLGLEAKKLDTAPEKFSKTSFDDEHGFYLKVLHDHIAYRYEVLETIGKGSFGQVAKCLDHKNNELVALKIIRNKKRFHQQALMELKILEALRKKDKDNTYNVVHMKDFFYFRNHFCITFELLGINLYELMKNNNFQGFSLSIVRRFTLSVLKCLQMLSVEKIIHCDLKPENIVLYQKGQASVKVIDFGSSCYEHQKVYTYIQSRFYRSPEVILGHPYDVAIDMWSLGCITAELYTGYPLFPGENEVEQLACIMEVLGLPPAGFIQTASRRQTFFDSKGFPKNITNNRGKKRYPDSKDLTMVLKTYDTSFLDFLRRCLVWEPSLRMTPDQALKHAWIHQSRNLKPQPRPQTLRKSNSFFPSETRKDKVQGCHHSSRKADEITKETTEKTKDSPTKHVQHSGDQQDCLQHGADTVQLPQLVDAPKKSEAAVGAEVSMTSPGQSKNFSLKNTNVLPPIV

Mus musculus [13] = assay: Antialzheimer activity in okadaic acid-induced cognitive impairment C57BL/6 mouse assessed as change in swimming speed at 10 to 30 mg/kg,po once daily for 2 weeks by Morris water maze test; type: functional, organism-based; conditions: dose 10-30 mg/kg
[14] = Toxicity in okadaic acid-induced cognitive impairment C57BL/6 mouse assessed as change in serum CRE level at 10 to 30 mg/kg,po once daily for 2 weeks; type: organism-based; conditions: in vivo, 336 h, dose 10-30 mg/kg
SH-SY5Y = assay: Cytotoxicity against human SH-SY5Y cells expressing human Tau P301L mutant at 0.15625 to 10 uM incubated for 24 hrs by MTT assay; type: functional, cell-based; conditions: dose 0.15625-10 µM
Mus musculus [15] = assay: Antialzheimer activity in okadaic acid-induced cognitive impairment C57BL/6 mouse assessed as downregulation of Tau phosphorylation at Thr212 residue in hippocampal DG region at 10 to 30 mg/kg,po once daily for 2 weeks by immunohistochemical staining analysis; type: functional, organism-based; conditions: dose 10-30 mg/kg
[16] = Drug concentration in Sprague-Dawley rat brain at 10 mg/kg,po measured after 6 hrs by LC-MS/MS analysis; type: ADME, organism-based; conditions: read-out: Ct
CDK9/cyclin T1 = CDK9/cyclin T1 (Homo sapiens, UniProt P50750); assay: Inhibition of CDK9/Cyclin T1 (unknown origin) preincubated with enzyme for 10 mins followed by substrate and ATP addition measured after 60 mins by ADP-Glo reagent based assay; type: protein-complex assay
CDK9/cyclin T1, sequence (O60563 whole entry): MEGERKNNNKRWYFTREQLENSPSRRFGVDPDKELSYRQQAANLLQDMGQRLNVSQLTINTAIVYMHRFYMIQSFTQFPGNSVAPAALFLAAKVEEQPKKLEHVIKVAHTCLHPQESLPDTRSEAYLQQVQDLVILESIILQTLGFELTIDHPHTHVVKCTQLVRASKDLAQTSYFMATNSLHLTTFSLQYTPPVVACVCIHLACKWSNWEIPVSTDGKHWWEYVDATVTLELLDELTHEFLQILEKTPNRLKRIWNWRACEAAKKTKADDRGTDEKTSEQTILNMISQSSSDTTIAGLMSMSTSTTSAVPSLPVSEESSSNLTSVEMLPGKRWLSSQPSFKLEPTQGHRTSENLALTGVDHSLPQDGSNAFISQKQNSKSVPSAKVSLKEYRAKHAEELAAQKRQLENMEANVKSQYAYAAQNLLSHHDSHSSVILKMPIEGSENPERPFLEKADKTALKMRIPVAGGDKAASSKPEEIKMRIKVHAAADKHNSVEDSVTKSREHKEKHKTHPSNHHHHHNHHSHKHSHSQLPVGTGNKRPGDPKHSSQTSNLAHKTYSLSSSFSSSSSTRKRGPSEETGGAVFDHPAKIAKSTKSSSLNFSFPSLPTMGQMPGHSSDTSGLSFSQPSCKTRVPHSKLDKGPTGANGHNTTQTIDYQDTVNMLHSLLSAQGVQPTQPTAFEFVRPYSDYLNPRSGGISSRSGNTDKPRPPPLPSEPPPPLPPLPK
CDK9/cyclin T1, sequence (P50750 whole entry): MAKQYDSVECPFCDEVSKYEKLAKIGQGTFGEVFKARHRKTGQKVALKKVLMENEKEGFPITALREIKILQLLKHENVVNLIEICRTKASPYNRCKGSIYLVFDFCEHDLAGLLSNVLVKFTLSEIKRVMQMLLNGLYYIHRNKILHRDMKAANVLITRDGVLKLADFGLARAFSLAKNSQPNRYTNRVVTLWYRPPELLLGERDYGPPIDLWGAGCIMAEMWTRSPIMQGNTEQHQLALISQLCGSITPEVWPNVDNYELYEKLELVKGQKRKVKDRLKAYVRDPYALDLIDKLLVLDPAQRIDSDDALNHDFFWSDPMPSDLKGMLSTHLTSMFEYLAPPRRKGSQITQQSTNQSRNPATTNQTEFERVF

Mus musculus [17] = assay: Antialzheimer activity in okadaic acid-induced cognitive impairment C57BL/6 mouse assessed as downregulation of Tau phosphorylation at Thr212 residue in hippocampus at 10 to 30 mg/kg,po once daily for 2 weeks by ELISA; type: functional, organism-based; conditions: dose 10-30 mg/kg
Mus musculus [18] = assay: Antialzheimer activity in okadaic acid-induced cognitive impairment C57BL/6 mouse assessed as downregulation of Tau phosphorylation at Thr212 residue in temporal cortex at 10 to 30 mg/kg,po once daily for 2 weeks by ELISA; type: functional, organism-based; conditions: dose 10-30 mg/kg
[19] = Acute toxicity in C57BL/6 mouse assessed as histopathological change in liver at 500 mg/kg,po observed after 14 days by hematoxylin-eosin staining based analysis; type: organism-based; conditions: in vivo, 336 h, time 14 day
HEK-293T = assay: Cytotoxicity against human HEK293T cells expressing human Tau P301L mutant at 20 uM incubated for 24 hrs by MTT assay; type: toxicity, cell-based
CYP3A4 = CYP3A4 (Homo sapiens, UniProt P08684); assay: Inhibition of CYP3A4 in human liver microsomes using midazolam as substrate at 10 uM preincubated for 10 mins followed by NADPH addition and measured after 40 mins by LC-MS/MS analysis relative to control; type: ADME, Microsome; conditions: probe midazolam, time 50 min
CYP3A4, sequence (P08684 whole entry): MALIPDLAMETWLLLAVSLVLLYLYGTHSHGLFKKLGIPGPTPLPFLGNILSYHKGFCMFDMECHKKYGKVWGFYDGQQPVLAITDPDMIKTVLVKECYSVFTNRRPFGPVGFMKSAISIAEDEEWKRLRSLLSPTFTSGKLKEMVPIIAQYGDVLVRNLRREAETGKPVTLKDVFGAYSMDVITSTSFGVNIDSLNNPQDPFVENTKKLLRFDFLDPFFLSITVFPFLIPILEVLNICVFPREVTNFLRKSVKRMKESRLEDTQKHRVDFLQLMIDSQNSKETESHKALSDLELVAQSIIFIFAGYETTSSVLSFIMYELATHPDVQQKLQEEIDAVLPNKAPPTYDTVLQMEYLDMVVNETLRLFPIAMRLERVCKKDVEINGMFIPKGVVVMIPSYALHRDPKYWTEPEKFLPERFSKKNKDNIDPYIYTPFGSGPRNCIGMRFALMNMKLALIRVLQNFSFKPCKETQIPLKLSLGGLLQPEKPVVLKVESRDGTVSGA

[20] = Acute toxicity in C57BL/6 mouse assessed as histopathological change in heart at 500 mg/kg,po observed after 14 days by hematoxylin-eosin staining based analysis; type: organism-based; conditions: in vivo, 336 h, time 14 day
[21] = biological target: Dual specificity protein kinase CLK3 (Homo sapiens, UniProt P49761); assay: Inhibition of CLK3 (unknown origin) at 1 uM preincubated with enzyme for 10 mins followed by substrate and ATP addition measured after 60 mins by ADP-Glo reagent based assay relative to control; conditions: time 70.0 min
Dual specificity protein kinase CLK3, sequence (P49761 whole entry, looked up): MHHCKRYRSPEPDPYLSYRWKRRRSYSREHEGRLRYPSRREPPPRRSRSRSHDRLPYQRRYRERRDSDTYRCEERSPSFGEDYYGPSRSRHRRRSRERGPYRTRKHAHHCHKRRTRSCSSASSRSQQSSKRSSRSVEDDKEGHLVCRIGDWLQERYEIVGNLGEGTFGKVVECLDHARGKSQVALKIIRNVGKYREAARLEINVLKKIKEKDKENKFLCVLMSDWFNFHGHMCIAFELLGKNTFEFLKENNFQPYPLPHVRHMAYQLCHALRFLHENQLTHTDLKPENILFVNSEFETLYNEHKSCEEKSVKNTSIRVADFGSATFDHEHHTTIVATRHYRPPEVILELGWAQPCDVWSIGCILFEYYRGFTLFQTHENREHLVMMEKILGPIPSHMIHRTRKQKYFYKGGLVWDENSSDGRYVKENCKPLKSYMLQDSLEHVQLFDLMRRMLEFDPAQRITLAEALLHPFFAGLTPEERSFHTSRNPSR

[22] = biological target: Dual specificity tyrosine-phosphorylation-regulated kinase 3 (Homo sapiens) (UniProt O43781); assay: Inhibition of DYRK3 (unknown origin) at 1 uM preincubated with enzyme for 10 mins followed by substrate and ATP addition measured after 60 mins by ADP-Glo reagent based assay relative to control; conditions: time 70.0 min
Dual specificity tyrosine-phosphorylation-regulated kinase 3 (Homo sapiens), sequence (O43781 whole entry): as the sequence (O43781 whole entry) above

[23] = AUC (0 to t) in Sprague-Dawley rat at 2 mg/kg,iv measured upto 24 hrs by LC-MS/MS analysis; type: ADME, organism-based; conditions: in vivo
[24] = MRT (0 to infinity) in Sprague-Dawley rat at 2 mg/kg,iv measured upto 24 hrs by LC-MS/MS analysis; type: ADME, organism-based; conditions: in vivo
Mus musculus [25] = assay: Antialzheimer activity in okadaic acid-induced cognitive impairment C57BL/6 mouse assessed as downregulation of Tau phosphorylation at Thr212 residue in hippocampal CA1 region at 10 to 30 mg/kg,po once daily for 2 weeks by immunohistochemical staining analysis; type: functional, organism-based; conditions: dose 10-30 mg/kg

In the case of `Cc1ccc2c(-c3ccc4ncnc(N[C@H](CO)c5ccccc5)c4c3)c[nH]c2n1`, the Activity [1] is reported as “Non-Toxic”, the AUC(0-inf) [2] is reported as 1590 ng·h/mL and the half-life at […], 1 µM [3] is reported as 1.53 h. It also gave an inhibition [4] of 100%, an inhibition at 40 min, 10 µM (CYP2C19) of 96.9% and an inhibition [5] of 105%. The MRT last at 24 h [6] was 5.77 h, the Activity (Mus musculus [7]) was “Active” and the bioavailability [8] was 39.7%. For the same molecule, the Activity [9] was “Non-Toxic”, the Activity (Mus musculus [10]) was “Active” and the IC50 [11] was 0.0175 µM. For the same molecule, the inhibition at 40 min, 10 µM (CYP2D6) was 65.8%, the inhibition [12] was 102% and the Activity (Mus musculus [13]) was “inactive”. The Activity [14] was “Non-Toxic”, the Activity (SH-SY5Y) was “inactive” and the Activity (Mus musculus [15]) was “Active”. For the same molecule, the concentration at 6 h [16] was 13.1 ng/g, the IC50 (CDK9/cyclin T1) was > 10 µM and the Activity (Mus musculus [17]) was “Active”. For the same molecule, the Activity (Mus musculus [18]) was “Active”, the Activity [19] was “Non-Toxic” and the Activity (HEK-293T) was “Toxic”. The inhibition at 40 min, 10 µM (CYP3A4) was 33.1%, the Activity [20] was “Non-Toxic” and the inhibition [21] was 113%. It also gave an inhibition [22] of 98.1%, an AUC(0-t) at 24 h [23] of 1500 ng·h/mL and an MRT inf [24] of 4.49 h. The Activity (Mus musculus [25]) was “Active”.
